Entries after “also recorded” stand apart in the source; their conditions may differ.
Experiments:
platelet cyclooxygenase = assay: Thromboxane B2 synthesis by arachidonic acid-stimulated platelet-rich plasma in vitro; format: cell-based, male Sprague-Dawley rats; conditions: for Effect on TX B2 formation / platelet cyclooxygenase: arachidonic acid-stimulated PRP
From the text: Was done manually by the method of Brecher and Conkite (1953) using phase contrast microscopy (Balplan) with a 40×annulus, 40×phase objective, and 10×ocular (total of 400×), and a special platelet counting chamber (American Optical Corp., Buffalo, N.Y.) and dilution with 1% ammonium oxalate. The platelet-rich plasma (PRP) was adjusted by dilution with platelet-poor plasma (PPP) to give a final count of 1×10^9 platelets/ml.
Arachidonic acid (as the sodium salt, >99.0% pure) was obtained from Sigma Chemical Co. and a stock solution of 34.5 mM was prepared by dissolving in isotonic saline. 20 μl of the stock solution were added to 440 μl of PRP (400 μl of PRP and 20 or 40 μl of treatment solution ±20 μl of saline) to make a 23 fold dilution. The final concentration of AA in PRP was 1.5 mM.
EDTA solution was prepared by adding 2 gm disodium EDTA and 0.8 gm NaCl and were adjusted to pH 7.4 with NaOH and made up to a final volume of 100 ml in distilled water. ASA solution was prepared by dissolving 30 mg in 10 ml of isotonic saline to make a solution of 3 mg/ml.
950 μl of EDTA solution were added to 50 μl of ASA solution and the mixture was vortexed. 40 μl of the mixture were pipetted in the experiment test tubes to stop further prostaglandin production.
Platelet-rich plasma (PRP) was prepared from male Sprague-Dawley rats (300-325 gm). The blood was collected by heart puncture and added to 3.8% citrate solution, final volume 9:1, blood:citrate. The blood was centrifuged at 120×g (750 rpm) for 15 minutes at 4° C. to obtain PRP. The rest of the blood was spun at 1800×g (3000 rpm) for 10 minutes to get the PPP which was used later for dilution of the PRP to achieve the final desired platelet concentration of 1×10^9 platelets/ml. 400 μl of PRP, containing 4×10^8 platelets, were pipetted in polypropylene tubes and the following treatment groups were studied:
1--Baseline (-ve control) tubes: to measure the baseline production of Thromboxane B2 (TX B2) by platelets during the time of the experiment, 60 μl of saline were added and left for 10 minutes in a shaking water bath at 37° C.
2--Control (+ve control) tubes: 20 μl of arachidonic acid (AA) solution were added to achieve a final concentration of 1.5 mM and the tubes were incubated […].
3--ASA and/or SAM treatment tubes: 20 μl of ASA (final conc. 130 μg/ml), 20 μl of SAM solution (final conc. 40 μg/ml), 20 μl of ASA/SAM(L) solution (final conc. 130/40 μg/ml) or 20 μl of ASA/SAM(H) solution (final conc. 130/120 μg/ml) were added to PRP together with 20 μl of saline for 10 minutes, then 20 μl of AA solution were added for additional 10 minutes.
4--ASA/SA treatment: 20 μl of ASA/SA solution (final conc. 130/130 μg/ml) and 20 μl of saline were added to the tubes for 10 minutes before AA was added for further 10 minutes.
5--ASA/SA/SAM treatment: 20 μl of ASA/SA solution (130/130 μg/ml as final conc.) and 20 μl of […] in low (L) or high (H) concentrations (40 or 120 μg/ml, final conc.) were added simultaneously to PRP followed 10 minutes later by AA.
6--SAM/SA treatment: 20 μl of SAM solution (final conc. 40 μg/ml) and 20 μl of SA solution (final conc. 130 μg/ml) were added followed 10 minutes later by AA for additional 10 minutes.
Also, the effect of SAM when administered first to the platelets followed 10 minutes later by ASA was studied to know whether the effect of SAM is time dependent or not.
During the treatment, all the tubes were incubated at 37° C. in a shaking water bath. Ten minutes after the addition of AA, or saline (for the control tubes), the experiment was ended by addition of 40 μl of EDTA/ASA solution. The tubes were immediately centrifuged at 1800×g for 15 minutes at 4° C. to precipitate the platelets and 100 μl of the supernatant were obtained for estimation of their content of TX B2 using a specific radioimmunoassay (Amersham International) (vide infra).
Radioimmunoassay Procedure for Measurement of Thromboxane B2 and 6-keto PG F1alpha […]

[1] = Tightly protein-bound 14C radioactivity after 14C-salicylamide; format: in vivo, male Sprague-Dawley rats; conditions: for Tightly protein-bound 14C in heart / Tightly protein-bound 14C in kidney / Tightly protein-bound 14C in liver / Tightly protein-bound 14C in lung / Tightly protein-bound 14C in plasma: 1.5 hr; for Effect on tightly protein-bound 14C in lung: 14C-SAM with ASA
Method: Forty-eight rats were divided into two groups.
The rats were anesthetized by light diethyl ether inhalation.
The plasma tightly protein-bound activity was measured by adding 100 μl of 10% trichloroacetic acid (TCA) to 100 μl of plasma in microcentrifuge tubes and vortexing the contents for 1 minute followed by centrifugation at 1800×g for 10 minutes. The supernatant was decanted and the tubes with the pellets in them were placed in scintillation vials each containing 15 ml of Aquasol-2 scintillation fluid. […] The radioactivity in the scintillation vials was counted in Beckman LS counter.
In the case of plasma analysis, 100 μl samples were used and the remainder of the procedure was the same as described above. The pellets were not dissolved but instead directly poured in a tube containing 15 ml of the scintillation fluid and the radioactivity was measured in the Beckman LS counter.

lipooxygenase pathway = conditions: cited from earlier work
[2] = oral 14C-SAM 3 mg/kg, alone or with ASA 10 mg/kg
[3] = oral 14C-SAM 6 mg/kg, alone or with ASA 20 mg/kg

## NC(=O)c1ccccc1O [SAM, Salicylamide]
Platelet cyclooxygenase; SAM 40 μg/ml with ASA/SA
  Reversal of SA effect by SAM: ~ 60%
Platelet cyclooxygenase; SAM 120 μg/ml with ASA/SA
  Reversal of SA effect by SAM: completely preempted SA effect
Platelet cyclooxygenase; SAM 40 or 120 μg/ml coadministered with ASA
  Effect of SAM on ASA inhibition of TX B2 synthesis: did not influence ASA inhibition of TX B2 synthesis; also recorded: did not alter ASA-induced inhibition of platelet cyclooxygenase
Platelet cyclooxygenase
  Effect on TX B2 formation / platelet cyclooxygenase: did not change TX B2 production compared to control
Platelet cyclooxygenase; platelet cyclooxygenase
  Effect on the aspirin-antagonistic effect of SA: dose-dependently quench the aspirin-antagonistic effect of SA

## N[14C](=O)c1ccccc1O [^14 C-SAM]
[1]; [2]
  Tightly protein-bound 14C in heart: 20.6 ± 1.7 ng ^14 C/gm tissue
  Tightly protein-bound 14C in kidney: 669.0 ± 45.1 ng ^14 C/gm tissue
  Tightly protein-bound 14C in liver: 24.2 ± 4.0 ng ^14 C/gm tissue
  Tightly protein-bound 14C in lung: 43.1 ± 6.1 ng ^14 C/gm tissue
  Tightly protein-bound 14C in plasma: 57.8 ± 3.0 ng ^14 C/ml plasma
[1]; [3]
  Tightly protein-bound 14C in heart: 87.7 ± 11.0 ng ^14 C/gm tissue
  Tightly protein-bound 14C in kidney: 1104.5 ± 212.6 ng ^14 C/gm tissue
  Tightly protein-bound 14C in liver: 72.6 ± 10.7 ng ^14 C/gm tissue
  Tightly protein-bound 14C in lung: 134.8 ± 20.7 ng ^14 C/gm tissue
  Tightly protein-bound 14C in plasma: 154.6 ± 29.8 ng ^14 C/ml plasma

## CC(=O)Oc1ccccc1C(=O)O [ASA, acetylsalicylic acid]
Platelet cyclooxygenase
  Effect of ASA addition to SAM/SA on TX B2: significant blocking of platelet cyclooxygenase
  Effect on TX B2 formation / platelet cyclooxygenase: significant inhibition of TX B2 formation
Lipooxygenase pathway
  Effect on the lipooxygenase pathway: reversibly block the lipooxygenase pathway
[1]; high dose
  Effect on tightly protein-bound 14C in lung: reached a significant level
[1]; low dose
  Effect on tightly protein-bound 14C in lung: tended to be higher
[1]; low dose combination
  Effect of ASA on tightly protein-bound 14C in heart: significantly enhanced

Reference: US5389621A, “Method of enhancing the anticoagulant effects of aspirin using salicylamide” (University of Medicine and Dentistry of New Jersey, priority 1994, dated 1995)
